Measurements reported in patent US20180110223A1, “PHENOXY- OR PYRIDIN-2-YLOXY-AMINOTRIAZINE COMPOUNDS AND THEIR USE AS HERBICIDES” (BASF SE, priority 2015, published 2018).

How the values were obtained:
Assay type in all cases: in vivo
Abutilon theophrasti [1] = assay: greenhouse post-emergence treatment, ABUTH; conditions: scale from 0 to 100
From the text: (§1) The culture containers used were plastic flowerpots containing loamy sand with approximately 3.0% of humus as the substrate. The seeds of the test plants were sown separately for each species.
(§2) For the post-emergence treatment, the test plants were first grown to a height of 3 to 15 cm, depending on the plant habit, and only then treated with the active ingredients which had been suspended or emulsified in water. For this purpose, the test plants were either sown directly and grown in the same containers, or they were first grown separately as seedlings and transplanted into the test containers a few days prior to treatment.
(§3) Depending on the species, the plants were kept at 10-25° C. or 20-35° C., respectively.
(§4) The test period extended over 2 to 4 weeks. During this time, the plants were tended, and their response to the individual treatments was evaluated.
(§5) Evaluation was carried out using a scale from 0 to 100. 100 means no emergence of the plants, or complete destruction of at least the aerial moieties, and 0 means no damage, or normal course of growth.
(§6) The plants used in the greenhouse experiments were of the following species: […]

Echinocloa crus-galli [2] = assay: greenhouse post-emergence treatment, ECHCG; conditions: scale from 0 to 100
From the text: as §1, §2, §3, §4, §5, §6

Setaria faberi [3] = assay: greenhouse post-emergence treatment, SETFA; conditions: scale from 0 to 100
From the text: as §1, §2, §3, §4, §5, §6

Amaranthus retroflexus [4] = assay: greenhouse post-emergence treatment, AMARE; conditions: scale from 0 to 100
From the text: as §1, §2, §3, §4, §5, §6

Viola arvensis = assay: greenhouse post-emergence treatment, VIOAR; conditions: 1000 g/ha, scale from 0 to 100
From the text: as §1, §2, §3, §4, §5, §6

Alopecurus agrestis = assay: greenhouse post-emergence treatment, ALOMY; conditions: 500 g/ha, scale from 0 to 100
From the text: as §1, §2, §3, §4, §5, §6

Amaranthus retroflexus [5] = assay: greenhouse pre-emergence treatment, AMARE; conditions: scale from 0 to 100
From the text: as §1
(§7) For the pre-emergence treatment, the active ingredients, which had been suspended or emulsified in water, were applied directly after sowing by means of finely distributing nozzles. The containers were irrigated gently to promote germination and growth and subsequently covered with transparent plastic hoods until the plants had rooted. This cover caused uniform germination of the test plants, unless this had been impaired by the active ingredients.
as §3, §4, §5, §6

Echinocloa crus-galli [6] = assay: greenhouse pre-emergence treatment, ECHCG; conditions: scale from 0 to 100
From the text: as §1, §7, §3, §4, §5, §6

Setaria faberi [7] = assay: greenhouse pre-emergence treatment, SETFA; conditions: scale from 0 to 100
From the text: as §1, §7, §3, §4, §5, §6

Abutilon theophrasti [8] = assay: greenhouse pre-emergence treatment, ABUTH; conditions: 1000 g/ha, scale from 0 to 100
From the text: as §1, §7, §3, §4, §5, §6

Polygonum convolvulus = assay: greenhouse post-emergence treatment, POLCO; conditions: 125 g/ha, scale from 0 to 100
From the text: as §1, §2, §3, §4, §5, §6

**Q.** How did the “herbicidal activity against ABUTH” value (Abutilon theophrasti [1]; 3000 g/ha) turn out when CC(F)c1nc(N)nc(Oc2c(F)c(F)cc(F)c2F)n1 (stereo not drawn) [Example 1, 4-(1-fluoroethyl)-6-(2,3,5,6-tetrafluorophenoxy)-1,3,5-triazin-2-amine] was run?
**A.** good (a good herbicidal activity is given at values of at least 70)

**Q.** What about the “herbicidal activity against ECHCG” value (Echinocloa crus-galli [2]; 3000 g/ha) of the same compound?
**A.** very good (a very good herbicidal activity is given at values of at least 85)

**Q.** What about the “herbicidal activity against SETFA” value (Setaria faberi [3]; 3000 g/ha) of the same compound?
**A.** very good (a very good herbicidal activity is given at values of at least 85)

**Q.** Which “herbicidal activity against ECHCG” value (Echinocloa crus-galli [2]; 3000 g/ha) does the source give for CC(C)(F)c1nc(N)nc(Oc2c(F)c(F)c(F)c(F)c2F)n1 [Example 2] here?
**A.** very good (a very good herbicidal activity is given at values of at least 85)

**Q.** What about the “herbicidal activity against SETFA” value (Setaria faberi [3]; 3000 g/ha) of the same compound?
**A.** very good (a very good herbicidal activity is given at values of at least 85)

**Q.** CC(C)(F)c1nc(N)nc(Oc2c(F)ccc(F)c2F)n1 [Example 5] was tested. Which “herbicidal activity against AMARE” value (Amaranthus retroflexus [4]; 1000 g/ha) did it give?
**A.** very good (a very good herbicidal activity is given at values of at least 85)

**Q.** Which “herbicidal activity against ECHCG” value (Echinocloa crus-galli [2]; 1000 g/ha) does the source give for CC(F)c1nc(N)nc(Oc2cccc(F)c2F)n1 (stereo not drawn) [Example 7] here?
**A.** very good (a very good herbicidal activity is given at values of at least 85)

**Q.** What about the “herbicidal activity against SETFA” value (Setaria faberi [3]; 1000 g/ha) of the same compound?
**A.** very good (a very good herbicidal activity is given at values of at least 85)

**Q.** CC(F)c1nc(N)nc(Oc2c(F)ccc(F)c2F)n1 (stereo not drawn) [Example 8] was tested. Which “herbicidal activity against AMARE” value (Amaranthus retroflexus [4]; 1000 g/ha) did it give?
**A.** very good (a very good herbicidal activity is given at values of at least 85)

**Q.** What about the “herbicidal activity against SETFA” value (Setaria faberi [3]; 1000 g/ha) of the same compound?
**A.** very good (a very good herbicidal activity is given at values of at least 85)

**Q.** What about the “herbicidal activity against VIOR” value (Viola arvensis) of the same compound?
**A.** very good (a very good herbicidal activity is given at values of at least 85)

**Q.** How did the “herbicidal activity against AMARE” value (Amaranthus retroflexus [4]; 1000 g/ha) turn out when CC(F)c1nc(N)nc(Oc2c(F)cc(F)c(F)c2F)n1 (stereo not drawn) [Example 9] was run?
**A.** very good (a very good herbicidal activity is given at values of at least 85)

**Q.** And the “herbicidal activity against SETFA” value (Setaria faberi [3]; 1000 g/ha)?
**A.** very good (a very good herbicidal activity is given at values of at least 85)

**Q.** And the “herbicidal activity against VIOR” value (Viola arvensis)?
**A.** very good (a very good herbicidal activity is given at values of at least 85)

**Q.** How did the “herbicidal activity against SETFA” value (Setaria faberi [3]; 1000 g/ha) turn out when Nc1nc(Oc2c(F)cc(F)c(F)c2F)nc(C(F)(F)F)n1 [Example 11] was run?
**A.** very good (a very good herbicidal activity is given at values of at least 85)

**Q.** Which “herbicidal activity against AMARE” value (Amaranthus retroflexus [4]; 500 g/ha) does the source give for CCC(C)(F)c1nc(N)nc(Oc2c(F)cc(F)c(F)c2F)n1 (stereo not drawn) [Example 19] here?
**A.** very good (a very good herbicidal activity is given at values of at least 85)

**Q.** How did the “herbicidal activity against ALOMY” value (Alopecurus agrestis) turn out when CC(C)(C#N)c1nc(N)nc(Oc2c(F)c(F)c(F)c(F)c2F)n1 [Example 22] was run?
**A.** good (a good herbicidal activity is given at values of at least 70)

**Q.** How did the “herbicidal activity against AMARE” value (Amaranthus retroflexus [5]; 1000 g/ha) turn out when CCC(F)c1nc(N)nc(Oc2c(F)cc(F)c(F)c2F)n1 (stereo not drawn) [Example 23] was run?
**A.** very good (a very good herbicidal activity is given at values of at least 85)

**Q.** What about the “herbicidal activity against ECHCG” value (Echinocloa crus-galli [6]; 1000 g/ha) of the same compound?
**A.** very good (a very good herbicidal activity is given at values of at least 85)

**Q.** And the “herbicidal activity against SETFA” value (Setaria faberi [7]; 1000 g/ha)?
**A.** very good (a very good herbicidal activity is given at values of at least 85)

**Q.** CCC(F)c1nc(N)nc(Oc2c(F)c(F)c(F)c(F)c2F)n1 (stereo not drawn) [Example 24] was tested. Which “herbicidal activity against ECHCG” value (Echinocloa crus-galli [6]; 1000 g/ha) did it give?
**A.** very good (a very good herbicidal activity is given at values of at least 85)

**Q.** And the “herbicidal activity against SETFA” value (Setaria faberi [7]; 1000 g/ha)?
**A.** very good (a very good herbicidal activity is given at values of at least 85)

**Q.** And the “herbicidal activity against ABUTH” value (Abutilon theophrasti [8])?
**A.** very good (a very good herbicidal activity is given at values of at least 85)

**Q.** How did the “herbicidal activity against ECHCG” value (Echinocloa crus-galli [2]; 500 g/ha) turn out when Nc1nc(Oc2c(F)cc(F)c(F)c2F)nc(-c2cccs2)n1 [Example 25] was run?
**A.** good (a good herbicidal activity is given at values of at least 70)

**Q.** Nc1nc(Oc2c(F)cc(F)c(F)c2F)nc(-c2ccc(Cl)s2)n1 [Example 27] was tested. Which “herbicidal activity against AMARE” value (Amaranthus retroflexus [4]; 500 g/ha) did it give?
**A.** herbicidal activity

**Q.** For Cc1ccc(-c2nc(N)nc(Oc3c(F)cc(F)c(F)c3F)n2)o1 [Example 32], which “herbicidal activity against ABUTH” value (Abutilon theophrasti [1]; 1000 g/ha) is on record?
**A.** very herbicidal activity

**Q.** For Nc1nc(Oc2c(F)cc(F)c(F)c2F)nc(C2CCCO2)n1 (stereo not drawn) [Example 33], which “herbicidal activity against POLCO” value (Polygonum convolvulus) is on record?
**A.** very good (a very good herbicidal activity is given at values of at least 85)

**Q.** Which “herbicidal activity against AMARE” value (Amaranthus retroflexus [5]; 500 g/ha) does the source give for Nc1nc(Oc2c(F)cc(F)c(F)c2F)nc([C@H]2CCCO2)n1 [Example 34] here?
**A.** good (a good herbicidal activity is given at values of at least 70)

**Q.** And the “herbicidal activity against SETFA” value (Setaria faberi [7]; 500 g/ha)?
**A.** good (a good herbicidal activity is given at values of at least 70)

**Q.** Nc1nc(Oc2c(F)cc(F)c(F)c2F)nc([C@@H]2CCCO2)n1 [Example 35] was tested. Which “herbicidal activity against AMARE” value (Amaranthus retroflexus [4]; 500 g/ha) did it give?
**A.** good (a good herbicidal activity is given at values of at least 70)

**Q.** For Cc1ncoc1-c1nc(N)nc(Oc2c(F)cc(F)c(F)c2F)n1 [Example 38], which “herbicidal activity against ECHCG” value (Echinocloa crus-galli [2]; 1000 g/ha) is on record?
**A.** good (a good herbicidal activity is given at values of at least 70)

**Q.** How did the “herbicidal activity against ECHCG” value (Echinocloa crus-galli [2]; 500 g/ha) turn out when CC(F)c1nc(N)nc(Oc2c(F)c(F)c(F)c(I)c2F)n1 (stereo not drawn) [Example 39] was run?
**A.** good (a good herbicidal activity is given at values of at least 70)

**Q.** And the “herbicidal activity against SETFA” value (Setaria faberi [3]; 500 g/ha)?
**A.** very good (a very good herbicidal activity is given at values of at least 85)

**Q.** How did the “herbicidal activity against AMARE” value (Amaranthus retroflexus [5]; 500 g/ha) turn out when CC(C)C(F)c1nc(N)nc(Oc2c(F)cc(F)c(F)c2F)n1 (stereo not drawn) [Example 42] was run?
**A.** good (a good herbicidal activity is given at values of at least 70)

**Q.** What about the “herbicidal activity against ECHCG” value (Echinocloa crus-galli [6]; 500 g/ha) of the same compound?
**A.** good (a good herbicidal activity is given at values of at least 70)

**Q.** What about the “herbicidal activity against SETFA” value (Setaria faberi [7]; 500 g/ha) of the same compound?
**A.** very good (a very good herbicidal activity is given at values of at least 85)
